The values that follow are results of earlier work, collected in patent US20180036237A1, “OIL/SURFACTANT MIXTURES FOR SELF-EMULSIFICATION” (priority 2015, published 2018).

For this data set the following is noted: single surfactant.

As to polyoxyethylene cetostearyl ether, the HLB was 13.5.
